Consider 12 molecules from PubChem BioAssay (NCI).

Some test systems named below: U251 CNS; COLO 205 colon; A498 renal; NCI-H23 lung; 786-0 renal; UACC-257 melanoma; HCT-15 colon; MALME-3M melanoma; MDA-N; RXF 393 renal; HT29 colon.
Assay in all cases: NCI tumour cell line growth inhibition, 48 h

Each structure is given as a SMILES string.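 All cell lines were grown in 96-well plates and treated with compound for 48 hours. TGI is the concentration that stops growth completely.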

`CCOC(=O)C1CCCCc2sc(N)c(C#N)c21` (configuration not stated): the TGI in the assay on U251 CNS, with COLO 205 colon, in the assay on A498 renal, in the assay with NCI-H23 lung, in the assay with 786-0 renal and in the assay with UACC-257 melanoma was greater than 100 µM each time. In addition, the TGI with HCT-15 colon, in the assay with MALME-3M melanoma, in the assay with MDA-N, in the assay with RXF 393 renal and in the assay with HT29 colon was greater than 100 µM in each case.
For the molecule `O=C1CC2(CCNCC2)C(=O)N1N1CCOCC1`, the TGI with U251 CNS, in the assay with COLO 205 colon, with A498 renal, with NCI-H23 lung, in the assay with 786-0 renal and with UACC-257 melanoma was greater than 100 µM throughout. Besides, the TGI in the assay with HCT-15 colon, in the assay with MALME-3M melanoma, in the assay with MDA-N, in the assay on RXF 393 renal and in the assay on HT29 colon was greater than 100 µM in each case.
For the molecule `O=C(c1ccco1)C1CC(c2ccc3ccccc3c2O)=NN1c1ccc([N+](=O)[O-])cc1[N+](=O)[O-]` (configuration not stated), the TGI in the assay with U251 CNS was greater than 100 µM; in the assay with COLO 205 colon, 32 µM; in the assay on A498 renal it was greater than 100 µM; with NCI-H23 lung it was greater than 100 µM; in the assay on 786-0 renal, greater than 100 µM; in the assay with UACC-257 melanoma it was greater than 100 µM. The TGI in the assay on HCT-15 colon is greater than 100 µM; with MALME-3M melanoma it was greater than 100 µM; in the assay on MDA-N, greater than 100 µM; in the assay on RXF 393 renal, greater than 100 µM; in the assay with HT29 colon, 42.3 µM.
As to `Cn1c(=O)sc2cc(C(=S)N3CCOCC3)ccc21`, the TGI in the assay with U251 CNS, in the assay on COLO 205 colon, in the assay on A498 renal, in the assay with NCI-H23 lung, with 786-0 renal and with UACC-257 melanoma was greater than 100 µM throughout. Besides, the TGI in the assay on HCT-15 colon, with MALME-3M melanoma, in the assay with MDA-N, in the assay with RXF 393 renal and with HT29 colon was greater than 100 µM throughout.
On to `CCOC(=O)/C(C#N)=C/N(CC)/N=C/c1ccccc1`, for which the TGI in the assay with U251 CNS, in the assay with COLO 205 colon, in the assay on A498 renal, with NCI-H23 lung, in the assay with 786-0 renal and in the assay with UACC-257 melanoma was greater than 100 µM in each case. Moreover, the TGI with HCT-15 colon, with MALME-3M melanoma, with MDA-N, with RXF 393 renal and with HT29 colon was greater than 100 µM each time.
On to `COC1=CC(=O)C2=C(C1=O)[C@H]1CC[C@]3(C)[C@@H](OC(C)=O)CC[C@H]3[C@@H]1CC2`, for which the TGI with U251 CNS, with COLO 205 colon, with A498 renal, in the assay on NCI-H23 lung, with 786-0 renal and with UACC-257 melanoma was greater than 100 µM throughout. Besides, the TGI in the assay on HCT-15 colon was greater than 100 µM; in the assay with MALME-3M melanoma it was 59 µM; with MDA-N, greater than 100 µM; with RXF 393 renal it was greater than 100 µM; with HT29 colon, 48.5 µM.
On to `O=[N+]([O-])/C=C/c1cn(CCCCCn2cc(/C=C/[N+](=O)[O-])c3ccccc32)c2ccccc12`, for which the TGI was 3.89 µM in the assay with U251 CNS; greater than 46.1 µM with COLO 205 colon; 3.86 µM in the assay on A498 renal; 16 µM with NCI-H23 lung; 1.35 µM in the assay with 786-0 renal; 13.8 µM with UACC-257 melanoma. The TGI was 8.67 µM in the assay with HCT-15 colon; 5.95 µM with MALME-3M melanoma; 6.67 µM with MDA-N; 1.35 µM with RXF 393 renal; 7.82 µM in the assay on HT29 colon.
As for `Cc1ccc2c(c1)CC1(C2=O)[C@H](c2ccccc2)C2C(=O)c3ccc(C)cc3C2[C@H]1c1ccccc1` (some centres not stated), the TGI in the assay on U251 CNS, with COLO 205 colon, with A498 renal, with NCI-H23 lung, with 786-0 renal and in the assay with UACC-257 melanoma was greater than 100 µM throughout. Also, the TGI with HCT-15 colon, in the assay on MALME-3M melanoma, with MDA-N, with RXF 393 renal and in the assay with HT29 colon was greater than 100 µM throughout.
For `Cc1ccc(/C=C2\CN(C)CC3C2=NC(=S)NC3c2ccc(C)cc2)cc1` (configuration not stated), the TGI was greater than 87.4 µM in the assay with U251 CNS; greater than 71.7 µM in the assay on COLO 205 colon; greater than 100 µM in the assay with A498 renal; greater than 100 µM in the assay on NCI-H23 lung; greater than 100 µM in the assay with 786-0 renal; greater than 100 µM in the assay on UACC-257 melanoma. Further, the TGI in the assay on HCT-15 colon is greater than 100 µM; in the assay on MALME-3M melanoma, greater than 100 µM; in the assay with MDA-N, 80.5 µM; with RXF 393 renal, greater than 87.1 µM; in the assay with HT29 colon, greater than 100 µM.
With `COC(=O)C(NC(=O)CSc1nnc(COc2ccc(Cl)cc2)n1-c1ccccc1)C(C)C` (configuration not stated), the TGI in the assay on U251 CNS is greater than 100 µM; in the assay on COLO 205 colon it was 48.6 µM; with A498 renal it was greater than 100 µM; in the assay with NCI-H23 lung, 69.3 µM; in the assay on 786-0 renal it was 38.8 µM; in the assay on UACC-257 melanoma it was 34 µM. The TGI is greater than 100 µM with HCT-15 colon; 31.9 µM in the assay on MALME-3M melanoma; 32.1 µM with MDA-N; 57.5 µM with RXF 393 renal; 44.5 µM in the assay on HT29 colon.
With `COc1ccc(C=Nc2ccc(-c3nc4ccccc4[nH]3)cc2)cc1OC`, the TGI with U251 CNS, in the assay on COLO 205 colon, in the assay on A498 renal, in the assay with NCI-H23 lung, in the assay with 786-0 renal and with UACC-257 melanoma was greater than 100 µM throughout. Further, the TGI with HCT-15 colon, in the assay on MALME-3M melanoma, in the assay on MDA-N, in the assay on RXF 393 renal and in the assay on HT29 colon was greater than 100 µM each time.
`CCCNC(=O)CCC(C)[C@H]1CCC2C3C(C[C@H](OC(C)=O)[C@@]21C)[C@@]1(C)CCC2(C[C@H]1C[C@H]3OC(C)=O)OOC1(CCCCC1)OO2` (some centres not stated): the TGI in the assay with U251 CNS is 3.84 µM; in the assay on COLO 205 colon, 3.64 µM; in the assay on A498 renal, 50.1 µM; in the assay on NCI-H23 lung, 3.54 µM; with 786-0 renal it was 6.53 µM; in the assay with UACC-257 melanoma it was greater than 100 µM. Also, the TGI with HCT-15 colon is greater than 100 µM; in the assay with MALME-3M melanoma, 6.04 µM; with MDA-N, 16.6 µM; with RXF 393 renal, 27.7 µM; in the assay on HT29 colon, greater than 90.8 µM.
